Results published in patent publication EP4810494A1, “HPK1 DEGRADATION AGENT AND USE THEREOF IN FIELD OF MEDICINE” (Haisco Pharmaceutical Group Co., Ltd., priority 2023, dated 2025).
Counter-ions that a name gives are not always drawn.

What was measured:
[1] = molecular target: T1, HPK1 kinase (Homo sapiens, UniProt Q92918); test: HPK1 kinase assay (Km concentration ATP); type: biochemical; conditions: for IC50: ATP at Km concentration (working concentration: 9 µM); for inhibitory activity against HPK1 kinase (in words): Km concentration ATP, conclusion
T1 construct: purchased Carna 07-410
T1 sequence (Q92918 1-346 limits assumed): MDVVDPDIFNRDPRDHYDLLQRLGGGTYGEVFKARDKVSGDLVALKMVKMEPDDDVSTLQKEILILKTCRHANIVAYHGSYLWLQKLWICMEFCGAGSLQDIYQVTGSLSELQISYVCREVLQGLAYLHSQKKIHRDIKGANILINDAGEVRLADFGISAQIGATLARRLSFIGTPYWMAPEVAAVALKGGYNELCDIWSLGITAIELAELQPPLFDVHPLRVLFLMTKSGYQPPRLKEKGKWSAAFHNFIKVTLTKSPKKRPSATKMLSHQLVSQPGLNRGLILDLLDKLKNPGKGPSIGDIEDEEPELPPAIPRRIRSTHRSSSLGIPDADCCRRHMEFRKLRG
Experimental: Test example 3: HPK1 kinase assay (Km concentration ATP)
The kinase HPK1 (Carna, Cat.No 07-410) was prepared into 2× kinase solution using 1× kinase buffer. The substrate Fluorescein-PKC (Invitrogen, Cat. No. PV3506) and ATP (working concentration: 9 µM) (Sigma, Cat. No. 2383-5G) were prepared into 2× substrate solution using 1×kinase buffer. The detection reagent was diluted to 2-fold the final concentration using an antibody diluent. 100 nL of compounds at different concentrations and 5 µL of kinase solution were added to each well of a 384-well plate, and the mixture was incubated at room temperature for 10 minutes. After the incubation was completed, 5 µL of substrate solution was added to each well, and the resulting mixture was reacted at room temperature for 90 minutes. After the reaction was completed, 10 µL of detection reagent was added to each well to terminate the reaction, and the mixture was incubated at room temperature for 60 minutes. Fluorescence readings were detected using an Envision instrument with excitation at 320 nm and emission at 520 nm and 495 nm. IC50 value was calculated using XLFit excel add-in version 5.4.0.8 software. The calculation formula of the inhibition rate was shown in formula 3-1, where max is the Ratio of the DMSO control, min is the Ratio of the negative control without enzyme, and sample is the Ratio of the compound. Ratio = RFU520nm /RFU495nm [formula] Inhibition% = (max−sample)/(max−min) × 100% [formula] Table 3-1 Inhibitory activity of test compounds against HPK1 kinase

[2] = Pharmacokinetic test in mice; type: in vivo, ICR mice; conditions: mouse, plasma, po, i. g., 10 mg/kg
Experimental: Test example 6: Pharmacokinetic test in mice
Experimental objective: In this experiment, a single dose of test substances was administered to ICR mice intravenously and intragastrically, the concentrations of the test compounds in plasma of mice were measured, and the pharmacokinetic characteristics and bioavailability of the test compounds in mice were evaluated.
Experimental animals: Male ICR mice, 20-35 g, purchased from Chengdu Dossy Experimental Animals Co., Ltd. (SCXK (CHUAN) 2020-030).
Experimental method: On the day of the experiment, the ICR mice were randomly grouped according to their body weights. The animals were fasted but with water available overnight before the administration, and fed 4 h after the administration.
Sampling: Blood was taken from the orbits of the mice at specified time points, and placed in an EDTAK2 centrifuge tube. Centrifugation was performed at 5000 rpm at 4°C for 10 min, and the plasma was collected.
Time points for plasma collection in G1 and G1-2 groups: 0, 5 min, 15 min, 30 min, 1 h, 2 h, 4 h, 7 h, and 24 h.
Time points for plasma collection in G2 and G2-2 groups: 0, 5 min, 15 min, 30 min, 1 h, 2 h, 4 h, 7 h, and 24 h.
Before analysis and detection, all the samples were stored at -60°C or lower. The samples were analysed quantitatively by LC-MS/MS. Table 6-1 PK data of test compound drug in mice

[3] = molecular target: T2, HPK1 protein (Homo sapiens, UniProt Q92918); test: Detection of HPK1 protein expression level in Jurkat cells (24 h); type: cell-based; conditions: 24 hours incubation
T2 construct: host or cells: Jurkat cells
T2 sequence (Q92918 whole entry): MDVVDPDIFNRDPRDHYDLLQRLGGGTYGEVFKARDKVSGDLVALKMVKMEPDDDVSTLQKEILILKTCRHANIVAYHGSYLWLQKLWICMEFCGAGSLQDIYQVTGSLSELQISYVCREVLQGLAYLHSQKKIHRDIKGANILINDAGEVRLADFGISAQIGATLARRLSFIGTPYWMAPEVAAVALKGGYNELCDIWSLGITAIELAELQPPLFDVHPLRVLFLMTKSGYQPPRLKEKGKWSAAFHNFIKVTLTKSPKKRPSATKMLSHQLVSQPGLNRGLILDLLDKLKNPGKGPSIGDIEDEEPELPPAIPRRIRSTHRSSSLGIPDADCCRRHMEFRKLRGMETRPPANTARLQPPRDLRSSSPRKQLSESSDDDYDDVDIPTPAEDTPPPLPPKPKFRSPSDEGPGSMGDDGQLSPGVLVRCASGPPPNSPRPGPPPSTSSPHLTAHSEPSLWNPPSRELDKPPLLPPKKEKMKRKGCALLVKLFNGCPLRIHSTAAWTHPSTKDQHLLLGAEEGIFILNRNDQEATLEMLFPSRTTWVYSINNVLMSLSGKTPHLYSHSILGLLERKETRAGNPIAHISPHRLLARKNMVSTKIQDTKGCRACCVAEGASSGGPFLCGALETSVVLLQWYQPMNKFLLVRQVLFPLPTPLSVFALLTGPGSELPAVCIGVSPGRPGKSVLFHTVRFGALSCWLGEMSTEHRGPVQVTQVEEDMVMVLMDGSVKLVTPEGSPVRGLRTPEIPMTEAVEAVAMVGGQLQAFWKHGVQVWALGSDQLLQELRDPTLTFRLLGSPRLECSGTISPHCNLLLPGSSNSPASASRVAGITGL
Experimental: Test example 4: Detection of HPK1 protein expression level in Jurkat cells (24 h)
Jurkat cells from ATCC were placed in a RPMI-1640 complete medium (supplemented with 10% FBS and 1% penicillin-streptomycin solution) and cultured at 37°C and 5% CO2. The cells in the logarithmic growth phase were collected, the cell density was adjusted to 5 × 10^5 cells/well with the culture medium, and the cells were added to a 6-well cell culture plate at a volume of 1 mL/well. The compound to be tested was prepared to 2-fold the final concentration, 1 mL of the compounds at different concentrations were added to administration wells, a medium containing 0.2% DMSO was added to control wells, and the plate was incubated at 37°C and 5% CO2 for 24 hours. The cells were collected into a 1.5 mL centrifuge tube, 30 µL of RIPA lysis buffer (containing 1X protease inhibitor cocktail) was added, and the cells were lysed on ice for 15 minutes and centrifuged at 12000 rpm/min at 4°C for 10 minutes. The supernatant was collected and the protein content was determined using the BCA method. The protein sample to be tested was diluted to 0.2 mg/mL, HPK1 was detected using a fully automated protein expression quantitative analyser (ProteinSimple), and the internal reference protein was β-actin (all antibodies were from CST). The software (Compass for SW) of the fully automated protein expression quantitative analyser was used to process the raw data and calculate the peak area after internal reference normalisation and the HPK1 degradation rate relative to the control group. The HPK1 degradation rate was calculated according to formula 4-1, where Aadministration well is the relative peak area of the administration group after internal reference normalisation, and Acontrol well is the relative peak area of the vehicle control group after internal reference normalisation. DC50 values were calculated using a four-parameter non-linear fitting model in Graphpad 8.3.0 software. HPK1_degradation % = 100−(Aadministration well/Acontrol well×100%) [formula] Table 4-1 Degradation activity of test compounds against HPK1 protein in Jurkat cells (24 h)

[4] = system: IL-2 secretion by T cells; test: IL-2 detection assay in cells (ELISA, pan-T cells isolated from PBMCs); type: cell-based; conditions: IL-2, CD3 antibody-coated plate, 24 hours
Experimental: 9. IL-2 detection assay in cells
Activating effect of compounds on IL-2 secretion by T cells was evaluated using the ELISA method. Frozen PBMCs were thawed, and pan-T cells were isolated and purified using a T cell sorting kit (Stemcell, 17951). The cells were resuspended in 1640 complete medium and incubated in a 37°C&5%CO2 incubator overnight. A 96-well plate coated with an anti-human CD3 antibody (Thermo, 16-0037-38) at a final concentration of 5 µg/mL was incubated at 37°C for 2 h. The overnight-cultured cells were collected by centrifugation, the supernatant was discarded, and the cells were resuspended in 1640 complete medium, and seeded in the CD3 antibody-coated 96-well plate at a density of 10^5cells/well. The compounds at different concentrations were added, and the mixture was incubated in a 37°C&5%CO2 incubator for 24 hours. After the incubation was completed, the resulting mixture was centrifuged at 1000 rpm for 1 minute to collect the supernatant, and IL-2 was detected according to the ELISA instructions. DMSO without compounds was used as the control group to calculate the activation rate of the compounds, and prism was used to fit the activation curve. Maximum activation fold = maximum activation rate/control group. Table 9-1 Results of IL-2 activation by test compounds

[5] = Pharmacokinetic test in rats; type: in vivo, SD rats; conditions: rat, plasma
Experimental: Test example 7: Pharmacokinetic test in rats
Experimental animals: Male SD rats, 180-200 g, purchased from Chengdu Dossy Experimental Animals Co., Ltd. with the laboratory animal production license number of SCXK (CHUAN) 2020-030.
Experimental design: on the day of the experiment, the SD rats were randomly grouped according to their body weights. The animals were fasted but with water available overnight before the administration, and fed 4 h after the administration.
Vehicle for intragastric administration: 5% Solutol+5% TPGS+30% PEG400+60% (20% SBE-β-CD)
Blood was taken from the orbits of the […] at specified time points, and placed in an EDTAK2 centrifuge tube. Centrifugation was performed at 5000 rpm for 10 min, and the plasma was collected.
Blood sampling time points for the intravenous administration group were: 0, 5 min, 15 min, 30 min, 1 h, 2 h, 4 h, 6 h, 8 h and 24 h; blood sampling time points for the intragastric administration group were: 0, 5 min, 15 min, 30 min, 1 h, 2 h, 4 h, 6 h, 8 h and 24 h. Before analysis and detection, all the samples were stored at - 60°C or lower. The samples were analysed quantitatively by LC-MS/MS. Table 7-1 PK data of test compound drug in rats

SMILES	IC50 [1]	inhibitory activity against HPK1 kinase (in words) [1]	AUC [2]	Cmax [2]	half-life [2]	DC50 [3]	Activation fold at 100 nM concentration ([4]; 100 nM)	Maximum activation fold ([4]; maximum activation rate/control group)	clearance ([5]; IV, 2.5 mg/kg)	half-life ([5]; IV, 2.5 mg/kg)	AUC ([5]; po, i. g., 10 mg/kg)	Cmax ([5]; po, i. g., 10 mg/kg)	half-life ([5]; po, i. g., 10 mg/kg)
O=C1CCC(c2ccc(N3CCN(CC4CCN(c5ccc(Nc6ccc(-c7cnc8cc(F)ccn78)c7c6C(=O)NC7)nc5)CC4)CC3)cc2F)C(=O)N1 (racemic) [Trifluoroacetic acid salt of compound 1]	< 10 nM	good inhibitory activity	14700 ng·h/mL	1070 ng/mL	6.73 h	< 20 nM							
O=C1CCN(c2cc3c(cc2F)N2CCN(CC4CCN(c5ccc(Nc6ccc(-c7cnc8cc(F)ccn78)c7c6C(=O)NC7)nc5)CC4)C[C@@H]2CC3)C(=O)N1 [Compound 5]	< 10 nM	good inhibitory activity	20000 ng·h/mL	1380 ng/mL	6.45 h	< 20 nM							
O=C1CCN(c2ccc(N3CCN(CC4CCN(c5ccc(Nc6ccc(-c7cnc8cc(F)ccn78)c7c6C(=O)NC7)nc5)CC4)CC3)cc2F)C(=O)N1 [Trifluoroacetic acid salt of compound 2]	< 10 nM	good inhibitory activity	16800 ng·h/mL	1280 ng/mL	5.79 h	< 20 nM							
O=C1CCC(c2cc3c(cc2F)N2CCN(CC4CCN(c5ccc(Nc6ccc(-c7cnc8cc(F)ccn78)c7c6C(=O)NC7)nc5)CC4)C[C@H]2CC3)C(=O)N1 (stereo partly shown) [Trifluoroacetic acid salt of compound 3]	< 10 nM	good inhibitory activity				< 20 nM							
O=C1CCC(c2cc3c(cc2F)N2CCN(CC4CCN(c5ccc(Nc6ccc(-c7cnc8cc(F)ccn78)c7c6C(=O)NC7)nc5)CC4)C[C@@H]2CC3)C(=O)N1 (stereo partly shown) [Trifluoroacetic acid salt of compound 4]	< 10 nM	good inhibitory activity	15200 ng·h/mL	1140 ng/mL	7.27 h	< 20 nM							
O=C1CCN(c2cc3c(cc2F)N2CCN(CC4CCN(c5ccc(Nc6ccc(-c7cnc8cc(F)ccn78)c7c6C(=O)NC7)nc5)CC4)C[C@H]2CC3)C(=O)N1 [Trifluoroacetic acid salt of compound 6]	< 10 nM	good inhibitory activity	20800 ng·h/mL	1520 ng/mL	5.35 h	< 20 nM	>10	>10	9.78 mL/min/kg	6.58 h	8360 ng·h/mL	721 ng/mL	6.4 h
